We go through 1 molecule from US10336707B2, “Heterocyclic derivatives modulating activity of certain protein kinases” (EUDENDRON S.R.L., priority 2014, dated 2019).

Test [1] addresses T1, FYN (Homo sapiens, UniProt P06241).
T1 construct: either as full-length or enzymatically active fragments; purchased ProQinase GmbH (Freiburg, Germany)
Kind of test: Radiometric protein kinase assay (33PanQuinase Activity Assay), FYN. The class given is biochemical. Conditions: ATP 0.3 μM. How it is done: A proprietary radiometric protein kinase assay (33PanQuinase® Activity Assay) developed by ProQuinase GmbH (Freiburg, Germany) was used for measuring the kinase activity of selected protein kinases. All assays were performed in FlashPlates™ wells 96 Perkin Elmer (Boston, Mass., USA) in a reaction volume of 50 μl. The reaction mixture was obtained in 4 steps in the following order: • 1. 10 μl of a solution of non-radioactive ATP in water; • 2. 25 μl of assay buffer/[γ-^33P]-ATP mixture • 3. 5 μl of test sample in 10% DMSO • 4. 10 μl of enzyme/substrate mixture
All protein kinases provided by ProQinase were expressed in Sf9 insect cells or in E. coli as recombinant GST-fusion proteins or His-tagged proteins, either as full-length or enzymatically active fragments. […] Kinases from external vendors (CAR=Carna Biosciences Inc.; INV=Life Technologies (Invitrogen Corporation); MIL=Merck-Millipore (Millipore Corporation), were expressed, purified and quality-controlled by virtue of the vendors readings.
A stock solution of compound of formula (I) was diluted to 5×10-04M/100% DMSO. […] Incorporation of 33Pi (counting of “cpm”) was determined with a microplate scintillation counter (Microbeta, Wallac). […]
Based on each 10 corresponding residual activities, IC50 values were calculated using Prism 5.04 for Windows (Graphpad, San Diego, Calif.). […]

The target in test [2] is T2, BaF3 NPM-ALK L1152R (Homo sapiens, UniProt Q9UM73, L1152R, cells depend on it).
T2 construct: fused on or other part: P06748 (Nucleophosmin)
The test is described as follows: Tritiated thymidine uptake cell proliferation assay, BaF3 NPM-ALK L1152R. The class given is cell-based, murine. Conditions: cell line BaF3 NPM-ALK L1152R; read-out: IC50 of cellular proliferation, BaF3 NPM-ALK L1152R. Here is the method:
Method: Tritiated Thymidine Uptake Cell Proliferation Assay
The following procedure was used with parent untransformed BaF3 cells, BaF3 cells transformed with the oncogenic fusion protein NPM/ALK, NPM/ALK positive SUDHL-1 cells, NPM/ALK positive SUPM2, ALK-negative HL60 cells, NPM/ALK positive KARPAS-299 cells. The parent untransformed BaF3 cells or Alk-negative HL60 cells are used as controls. Cells were seeded in U-bottomed 96-well plates at 10000 cells/well in a volume of 100 μl in supplemented medium. In the case of the parent untransformed BaF3 cells, the medium was supplemented with IL-3. Serial dilutions of inhibitors were added to the appropriate wells and volumes adjusted to 200 μl. Controls were treated with the equivalent volume of vehicle, DMSO, alone. Plates were incubated at 37° C. for 72 h. 3[H]-thymidine (1 μCi/well) was added for the last 16 h of incubation. Cells were harvested on to paper filters and 3[H]-thymidine incorporation was measured using a scintillation counter (1430 MicroBeta, Wallac, Turku, Finland). The 50% inhibitory concentration (IC50) was defined as the concentration of inhibitor, expressed in nanomolar units, that gave a 50% decrease in 3[H]-thymidine uptake compared with controls.
In Table 4 are reported the IC50 of cellular proliferation assays of example 3 versus ALK positive, mutated and negative cell lines.

T2 sequence (Q9UM73 whole entry L1152R, the tested form may be a part): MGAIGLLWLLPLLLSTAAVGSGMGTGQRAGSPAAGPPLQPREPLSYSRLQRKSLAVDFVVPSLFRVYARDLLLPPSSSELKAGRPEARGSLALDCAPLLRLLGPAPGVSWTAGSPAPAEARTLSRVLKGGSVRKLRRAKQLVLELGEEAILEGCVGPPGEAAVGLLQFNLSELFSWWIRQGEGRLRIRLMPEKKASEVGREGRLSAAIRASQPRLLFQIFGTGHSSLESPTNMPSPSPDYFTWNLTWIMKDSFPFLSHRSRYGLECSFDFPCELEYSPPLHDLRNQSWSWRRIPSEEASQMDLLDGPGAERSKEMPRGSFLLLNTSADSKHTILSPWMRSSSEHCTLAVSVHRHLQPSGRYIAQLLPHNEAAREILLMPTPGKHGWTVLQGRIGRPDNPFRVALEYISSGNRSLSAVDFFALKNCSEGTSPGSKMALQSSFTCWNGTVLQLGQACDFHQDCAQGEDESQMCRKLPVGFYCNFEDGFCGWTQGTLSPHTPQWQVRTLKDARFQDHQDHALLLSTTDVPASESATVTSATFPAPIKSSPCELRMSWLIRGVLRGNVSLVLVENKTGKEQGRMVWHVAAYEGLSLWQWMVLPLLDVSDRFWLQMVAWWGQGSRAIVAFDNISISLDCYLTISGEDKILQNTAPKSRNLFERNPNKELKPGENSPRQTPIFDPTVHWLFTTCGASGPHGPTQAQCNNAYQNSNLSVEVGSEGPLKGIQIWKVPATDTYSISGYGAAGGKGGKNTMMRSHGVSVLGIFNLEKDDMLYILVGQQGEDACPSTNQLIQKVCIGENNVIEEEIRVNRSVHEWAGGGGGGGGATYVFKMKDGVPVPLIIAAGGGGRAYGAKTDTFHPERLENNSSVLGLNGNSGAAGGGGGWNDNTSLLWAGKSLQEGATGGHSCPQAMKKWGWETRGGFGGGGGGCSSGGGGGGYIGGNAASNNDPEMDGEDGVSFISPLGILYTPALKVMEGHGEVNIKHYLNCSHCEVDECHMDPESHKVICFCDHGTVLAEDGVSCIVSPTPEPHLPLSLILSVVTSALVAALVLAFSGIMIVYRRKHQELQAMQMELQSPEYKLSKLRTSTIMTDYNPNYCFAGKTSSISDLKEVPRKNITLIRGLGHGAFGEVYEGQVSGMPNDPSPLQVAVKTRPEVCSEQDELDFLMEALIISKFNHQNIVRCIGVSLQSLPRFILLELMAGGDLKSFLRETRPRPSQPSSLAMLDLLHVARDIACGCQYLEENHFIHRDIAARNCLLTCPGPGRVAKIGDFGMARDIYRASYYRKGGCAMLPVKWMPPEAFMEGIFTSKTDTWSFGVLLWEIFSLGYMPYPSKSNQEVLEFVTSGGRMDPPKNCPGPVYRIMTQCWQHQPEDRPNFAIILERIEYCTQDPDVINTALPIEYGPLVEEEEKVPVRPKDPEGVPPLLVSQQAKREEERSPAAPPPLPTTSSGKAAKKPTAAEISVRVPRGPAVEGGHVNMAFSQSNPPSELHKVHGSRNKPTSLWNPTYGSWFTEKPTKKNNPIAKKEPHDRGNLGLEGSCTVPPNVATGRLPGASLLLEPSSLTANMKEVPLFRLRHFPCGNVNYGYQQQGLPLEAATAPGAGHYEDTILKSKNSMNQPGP
T1 sequence (P06241 whole entry, the tested form may be a part): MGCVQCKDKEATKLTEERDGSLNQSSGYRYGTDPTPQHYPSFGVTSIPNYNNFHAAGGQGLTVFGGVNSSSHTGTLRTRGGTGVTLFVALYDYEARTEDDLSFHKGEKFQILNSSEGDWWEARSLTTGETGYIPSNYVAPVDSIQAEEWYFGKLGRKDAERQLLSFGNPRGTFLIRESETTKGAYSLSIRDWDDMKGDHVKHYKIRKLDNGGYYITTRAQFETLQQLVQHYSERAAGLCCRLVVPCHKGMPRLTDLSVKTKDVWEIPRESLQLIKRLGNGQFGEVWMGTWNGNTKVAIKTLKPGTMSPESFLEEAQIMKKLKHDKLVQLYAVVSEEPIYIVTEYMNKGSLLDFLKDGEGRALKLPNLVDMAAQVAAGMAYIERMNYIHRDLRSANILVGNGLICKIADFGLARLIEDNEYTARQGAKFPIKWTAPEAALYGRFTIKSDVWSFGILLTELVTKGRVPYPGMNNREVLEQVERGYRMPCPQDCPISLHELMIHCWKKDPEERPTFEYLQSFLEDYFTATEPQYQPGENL

In the case of `CN1CCN(c2ccc(C(=O)Nc3n[nH]c4cc(-c5ccc(O)cc5)c(Cc5cc(F)cc(F)c5)cc34)c(NC3CCOCC3)c2)CC1` [Example 3, N-[5-[(3,5-difluorophenyl)methyl]-6-(4-hydroxyphenyl)-1H-indazol-3-yl]-4-(4-methylpiperazin-1-yl)-2-(tetrahydropyran-4-ylamino)benzamide], the IC50 (in general, the point on the concentration scale where inhibition reaches its midpoint) in test [1] came to 34 nM. The GI50 in test [2] came to 18 nM.
